Measured values published in the PolyMetriX glass transition set.

Q: For `*c1ccc(-c2nc3cc(C(=O)c4ccc5nc(-c6ccccc6)c(-c6ccc(-n7c(=O)c8cc9c(=O)n(*)c(=O)c9cc8c7=O)cc6)nc5c4)ccc3nc2-c2ccccc2)cc1` (repeat unit), which glass transition temperature is on record?
A: Its glass transition temperature is 240.00 °C.

Q: With `*C(=O)Nc1ccc(Cc2ccc(NC(=O)c3ccc(N4C(=O)c5ccc(*)cc5C4=O)cc3)cc2)cc1` (repeat unit) as the compound, how does the glass transition temperature read?
A: The glass transition temperature was 222.00 °C.

Q: For `*c1ccc(-c2ccc(-c3ccc(-c4cnc5ccc(-c6ccc7ncc(*)nc7c6)cc5n4)cc3)cc2)cc1` (repeat unit), which glass transition temperature is on record?
A: Its glass transition temperature is 305.00 °C.

Q: For `*c1ccc(Oc2ccc(-c3ccc(Oc4ccc(N5C(=O)c6ccc(Oc7ccccc7Oc7ccc8c(c7)C(=O)N(*)C8=O)cc6C5=O)cc4)cc3)cc2)cc1` (repeat unit), which glass transition temperature is on record?
A: The glass transition temperature was 204.00 °C.

Q: For `*CC(*)c1c(F)c(F)c(OC)c(F)c1F` (repeat unit), which glass transition temperature is on record?
A: Its glass transition temperature is 94.00 °C.

Q: For `*CC(*)(CC(=O)OC)C(=O)O` (repeat unit), which glass transition temperature is on record?
A: The glass transition temperature was 159.00 °C.

Q: Which glass transition temperature does the source give for `*CCCOC(=O)c1cc(/N=N/c2ccc(OCC)cc2)ccc1-c1ccc(/N=N/c2ccc(OCC)cc2)cc1C(=O)O*` (repeat unit) here?
A: The glass transition temperature was 101.00 °C.

Q: With `*CCOC(=O)c1ccc(-c2ccc(-c3ccc(C(=O)O*)cc3)cc2)cc1` (repeat unit) as the compound, how does the glass transition temperature read?
A: The glass transition temperature was 180.00 °C.

Q: With `*c1ccc2c(c1)C(=O)N(c1ccc(C(=O)Nc3ccc(Oc4ccc(NC(=O)c5ccc(N6C(=O)c7ccc(C(*)(C(F)(F)F)C(F)(F)F)cc7C6=O)cc5)cc4)cc3)cc1)C2=O` (repeat unit) as the compound, how does the glass transition temperature read?
A: Its glass transition temperature is 322.00 °C.

Q: With `*O[Si](C)(C)O[Si](C)(C)O[Si](C)(C)O[Si](C)(C)O[Si](C)(C)c1ccc([Si](*)(C)C)cc1` (repeat unit) as the compound, how does the glass transition temperature read?
A: Its glass transition temperature is -80.00 °C.

Q: For `*CCCCC(=O)NCc1ccc(CNC(=O)CCCCS*)cc1` (repeat unit), which glass transition temperature is on record?
A: The glass transition temperature was 70.00 °C.

Q: With `*c1ccc(OC(=O)Nc2ccc(-c3ccc(NC(=O)Oc4ccc(-c5nc(-c6ccc(-c7nc(-c8ccc([N+](=O)[O-])cc8)c(-c8ccc([N+](=O)[O-])cc8)[nH]7)cc6)[nH]c5*)cc4)cc3OC)c(OC)c2)cc1` (repeat unit) as the compound, how does the glass transition temperature read?
A: Its glass transition temperature is 223.00 °C.

Q: For `*Oc1ccc(C(=O)c2ccc(Oc3ccc(C(=O)c4c(C(=O)c5ccc(*)cc5)c(-c5ccc(F)cc5)c(-c5ccc(F)cc5)c(-c5ccc(F)cc5)c4-c4ccc(F)cc4)cc3)cc2)cc1` (repeat unit), which glass transition temperature is on record?
A: The glass transition temperature was 260.00 °C.

Q: With `*c1ccc(Sc2ccc(Sc3ccc(Sc4ccc(S(*)=O)cc4)cc3)cc2)cc1` (repeat unit) as the compound, how does the glass transition temperature read?
A: Its glass transition temperature is 133.00 °C.

Q: Which glass transition temperature does the source give for `*c1cccc(C(=O)Nc2cccc(S(=O)(=O)c3cccc(NC(=O)c4cccc(N5C(=O)c6ccc(-c7ccc8c(c7)C(=O)N(*)C8=O)cc6C5=O)c4)c3)c2)c1` (repeat unit) here?
A: Its glass transition temperature is 247.00 °C.

Q: With `*c1ccc(Oc2ccc(-c3c4ccccc4c(-c4ccc(Oc5ccc(-c6c7c(c(*)c8ccccc68)C(=O)N(c6ccccc6)C7=O)cc5)c(C(F)(F)F)c4)c4ccccc34)cc2C(F)(F)F)cc1` (repeat unit) as the compound, how does the glass transition temperature read?
A: The glass transition temperature was 361.00 °C.

Q: Which glass transition temperature does the source give for `*CCCCCCNC(=O)c1cc(C(=O)N*)cc(C(C)(C)C)c1` (repeat unit) here?
A: The glass transition temperature was 163.00 °C.

Q: Which glass transition temperature does the source give for `*c1ccc(S(=O)(=O)c2ccc(-n3nc(-c4ccccc4)c4cc(Oc5ccc(C(C)(C)c6ccc(Oc7ccc8c(-c9ccccc9)nn(*)c(=O)c8c7)cc6)cc5)ccc4c3=O)cc2)cc1` (repeat unit) here?
A: Its glass transition temperature is 210.50 °C.

Q: With `*CC(COc1ccc(C(C)(c2ccccc2)c2ccc(O*)cc2)cc1)OC(=O)c1ccccc1` (repeat unit) as the compound, how does the glass transition temperature read?
A: The glass transition temperature was 126.00 °C.

Q: With `*c1ccc(S(=O)(=O)c2ccc(-n3c(=O)c4cc5c(=O)n(*)c(=O)c5cc4c3=O)cc2)cc1` (repeat unit) as the compound, how does the glass transition temperature read?
A: The glass transition temperature was 350.00 °C.

Q: For `*Oc1ccccc1C(=O)OC(=O)c1ccccc1OC(=O)CCCCCCC(*)=O` (repeat unit), which glass transition temperature is on record?
A: Its glass transition temperature is 28.00 °C.

Q: Which glass transition temperature does the source give for `*O[Si](c1ccccc1)(c1ccccc1)c1cccc(*)c1` (repeat unit) here?
A: Its glass transition temperature is 62.00 °C.

Q: With `*O[Si](*)(C)CCCOc1ccc(-c2ccc(C#N)cc2)cc1` (repeat unit) as the compound, how does the glass transition temperature read?
A: Its glass transition temperature is 38.00 °C.

Q: For `*c1ccc(-c2cc(-c3ccc(-c4ccccc4)cc3)cc(-c3ccc(N4C(=O)c5ccc(NC(=O)Nc6ccc(Oc7ccc(NC(=O)Nc8ccc9c(c8)C(=O)N(*)C9=O)cc7)cc6)cc5C4=O)cc3)n2)cc1` (repeat unit), which glass transition temperature is on record?
A: Its glass transition temperature is 241.00 °C.

Q: For `*CC(*)C(=O)OCCOCC(F)(F)C(F)(F)C(F)(F)F` (repeat unit), which glass transition temperature is on record?
A: Its glass transition temperature is -45.00 °C.

Q: Which glass transition temperature does the source give for `*c1ccc(C(=O)OCCCCCCCCCCOC(=O)c2ccc(-c3nnc(*)s3)cc2)cc1` (repeat unit) here?
A: The glass transition temperature was 79.00 °C.

Q: With `*Nc1ccc(-c2ccc(NC(=O)Cc3cc(C)c(CC(*)=O)cc3C)cc2)cc1` (repeat unit) as the compound, how does the glass transition temperature read?
A: The glass transition temperature was 171.00 °C.

Q: For `*CC(=O)Nc1ccc(Oc2ccc(C(C)(C)c3ccc(Oc4ccc(NC(=O)CN5C(=O)c6ccc(C(c7ccc8c(c7)C(=O)N(*)C8=O)(C(F)(F)F)C(F)(F)F)cc6C5=O)cc4)cc3)cc2)cc1` (repeat unit), which glass transition temperature is on record?
A: The glass transition temperature was 224.00 °C.

Q: Which glass transition temperature does the source give for `*c1ccc(Oc2ccc(C(=O)c3cccc(C(=O)c4ccc(Oc5ccc(N6C(=O)c7ccc(Oc8ccc(Oc9ccc(Oc%10ccc%11c(c%10)C(=O)N(*)C%11=O)cc9)cc8)cc7C6=O)cc5)cc4)c3)cc2)cc1` (repeat unit) here?
A: Its glass transition temperature is 192.00 °C.

Q: Which glass transition temperature does the source give for `*C(=O)Nc1ccc(Cc2ccc(NC(=O)c3ccc4c(c3)C(=O)N(c3cccc(P(=O)(c5ccccc5)c5cccc(N6C(=O)c7ccc(*)cc7C6=O)c5)c3)C4=O)cc2)cc1` (repeat unit) here?
A: The glass transition temperature was 233.00 °C.

Q: With `*c1cc(CC(=O)OCCN(CC)c2ccc(/N=N/c3ccc([N+](=O)[O-])cc3)cc2)c(*)s1` (repeat unit) as the compound, how does the glass transition temperature read?
A: Its glass transition temperature is 102.00 °C.

Q: For `*CCCCCCOC(=O)NCc1ccc(CNC(=O)O*)cc1` (repeat unit), which glass transition temperature is on record?
A: Its glass transition temperature is 56.00 °C.

Q: Which glass transition temperature does the source give for `*CC(*)(C)C(=O)OCCCCCc1ccc(/N=N/c2ccc(OC(F)(F)F)cc2)cc1` (repeat unit) here?
A: The glass transition temperature was 202.50 °C.

Q: With `*CCCCCCCCN1C(=O)c2ccc(C(=O)c3ccc4c(c3)C(=O)N(*)C4=O)cc2C1=O` (repeat unit) as the compound, how does the glass transition temperature read?
A: The glass transition temperature was 113.00 °C.

Q: Which glass transition temperature does the source give for `*/C=C/c1ccc(*)c(-c2ccc(OCC(CC)CCCC)c3ccccc23)c1` (repeat unit) here?
A: The glass transition temperature was 135.00 °C.

Q: For `*CCCCCCCCCCc1ccc(-c2c(-c3ccccc3)cc(-c3ccc(-c4cc(-c5ccccc5)c(-c5ccc(*)cc5)c(-c5ccccc5)c4-c4ccccc4)cc3)c(-c3ccccc3)c2-c2ccccc2)cc1` (repeat unit), which glass transition temperature is on record?
A: Its glass transition temperature is 235.00 °C.

Q: With `*O[Si](C)(C)c1ccc([Si](*)(C)C)c2ccccc12` (repeat unit) as the compound, how does the glass transition temperature read?
A: Its glass transition temperature is 60.00 °C.

Q: Which glass transition temperature does the source give for `*c1ccc2c(c1)C(=O)N(c1ccc(N(C)CCN(C)c3ccc(N4C(=O)c5ccc(C(*)(C(F)(F)F)C(F)(F)F)cc5C4=O)cc3)cc1)C2=O` (repeat unit) here?
A: Its glass transition temperature is 227.00 °C.

Q: For `*CC(*)(Cl)C(=O)OC` (repeat unit), which glass transition temperature is on record?
A: The glass transition temperature was 125.00 °C.

Q: Which glass transition temperature does the source give for `*Oc1ccc(CC(NC(=O)CCc2ccc(OC(=O)CC(C)CCC(*)=O)cc2)C(=O)OC(C)CC)cc1` (repeat unit) here?
A: Its glass transition temperature is 45.00 °C.

Q: With `*CCNC(=O)c1ccc([Si](C)(C)c2ccc(C(=O)NCCN(*)c3ccc(/C=C/c4ccc([N+](=O)[O-])cc4)cc3)cc2)cc1` (repeat unit) as the compound, how does the glass transition temperature read?
A: The glass transition temperature was 150.00 °C.

Q: For `*Oc1cccc(Oc2cccc(NC(=O)c3cccc(Oc4cccc(Oc5cccc(C(=O)Nc6cccc(*)c6)c5)c4)c3)c2)c1` (repeat unit), which glass transition temperature is on record?
A: Its glass transition temperature is 137.50 °C.
